In ChEMBL document CHEMBL3885881, “DrugMatrix”:

Species on record: Rattus norvegicus
Test: DrugMatrix - Regimen: Daily Repeat
Format: toxicity, organism-based, Sprague-Dawley
Parameters: regimen Daily Repeat, gender Male, age 6-8 weeks
Conditions: in vivo, po, route oral GAVAGE, vehicle 100 % WATER; for ABSOLUTE BASOPHIL / ABSOLUTE EOSINOPHIL / ABSOLUTE LYMPHOCYTE / ABSOLUTE MONOCYTE / ABSOLUTE SEGMENTED NEUTROPHIL / BASOPHIL / EOSINOPHIL / ERYTHROCYTE COUNT / HEMATOCRIT / HEMOGLOBIN / LEUKOCYTE COUNT / LYMPHOCYTE / MEAN CORPUSCULAR HEMOGLOBIN / MEAN CORPUSCULAR HEMOGLOBIN CONCENTRATION / MEAN CORPUSCULAR VOLUME / MONOCYTE / NEUTROPHIL / NUCLEATED RED BLOOD CELLS / PLATELET COUNT: tissue Blood; for ALANINE AMINOTRANSFERASE / ALBUMIN / ALKALINE PHOSPHATASE / ASPARTATE AMINOTRANSFERASE / BLOOD UREA NITROGEN / CARBON DIOXIDE / CHLORIDE / CHOLESTEROL / CREATINE PHOSPHOKINASE / CREATININE / GLUCOSE / LACTATE DEHYDROGENASE / LIPASE / PHOSPHORUS / POTASSIUM / SODIUM / TOTAL BILIRUBIN / TOTAL PROTEIN / URIC ACID: tissue Plasma
[1] = 0 mg/kg, 72 h, dose level Control, time 3 day
[2] = 0 mg/kg, 120 h, dose level Control, time 5 day
[3] = 60 mg/kg, 72 h, dose level Low, time 3 day
[4] = 60 mg/kg, 120 h, dose level Low, time 5 day

Structure (SMILES): ClC(Cl)Cl [CHLOROFORM]
- ABSOLUTE BASOPHIL [1]: 0 CELLS/uL
- ABSOLUTE EOSINOPHIL [1]: 86.33 CELLS/uL
- ABSOLUTE LYMPHOCYTE [1]: 12090.17 CELLS/uL
- ABSOLUTE MONOCYTE [1]: 166.67 CELLS/uL
- ABSOLUTE SEGMENTED NEUTROPHIL [1]: 1090.17 CELLS/uL
- BASOPHIL [1]: 0%
- EOSINOPHIL [1]: 0.67%
- ERYTHROCYTE COUNT [1]: 5.57 x10E6/uL
- HEMATOCRIT [1]: 35.33%
- HEMOGLOBIN [1]: 13.83 G/DL
- LEUKOCYTE COUNT [1]: 13.43 x10E3/uL
- LYMPHOCYTE [1]: 89.83%
- MEAN CORPUSCULAR HEMOGLOBIN [1]: 24.88 pg
- MEAN CORPUSCULAR HEMOGLOBIN CONCENTRATION [1]: 39.15 G/DL
- MEAN CORPUSCULAR VOLUME [1]: 63.52 fL
- MONOCYTE [1]: 1.17%
- NEUTROPHIL [1]: 8.33%
- NUCLEATED RED BLOOD CELLS [1]: 0 /100WBC
- PLATELET COUNT [1]: 1181.33 x10E3/uL
- ALANINE AMINOTRANSFERASE [1]: 48.33 u/L
- ALBUMIN [1]: 4.1 G/DL
- ALKALINE PHOSPHATASE [1]: 395 u/L
- ASPARTATE AMINOTRANSFERASE [1]: 81.83 u/L
- BLOOD UREA NITROGEN [1]: 15.83 mg/dL
- CARBON DIOXIDE [1]: 24.17 mmol/L
- CHLORIDE [1]: 103.83 MEQ/L
- CHOLESTEROL [1]: 63.67 mg/dL
- CREATINE PHOSPHOKINASE [1]: 372.83 u/L
- CREATININE [1]: 0.18 mg/dL
- GLUCOSE [1]: 173.83 mg/dL
- LACTATE DEHYDROGENASE [1]: 188.33 u/L
- LIPASE [1]: 9.5 u/L
- PHOSPHORUS [1]: 11.95 mg/dL
- POTASSIUM [1]: 5.99 MEQ/L
- SODIUM [1]: 144.43 MEQ/L
- TOTAL BILIRUBIN [1]: 0.15 mg/dL
- TOTAL PROTEIN [1]: 5.95 G/DL
- URIC ACID [1]: 1.82 mg/dL
- ABSOLUTE BASOPHIL [2]: 0 CELLS/uL
- ABSOLUTE EOSINOPHIL [2]: 26.67 CELLS/uL
- ABSOLUTE LYMPHOCYTE [2]: 7583.83 CELLS/uL
- ABSOLUTE MONOCYTE [2]: 131.33 CELLS/uL
- ABSOLUTE SEGMENTED NEUTROPHIL [2]: 674.83 CELLS/uL
- BASOPHIL [2]: 0%
- EOSINOPHIL [2]: 0.33%
- ERYTHROCYTE COUNT [2]: 5.78 x10E6/uL
- HEMATOCRIT [2]: 36.48%
- HEMOGLOBIN [2]: 14.03 G/DL
- LEUKOCYTE COUNT [2]: 8.42 x10E3/uL
- LYMPHOCYTE [2]: 89.83%
- MEAN CORPUSCULAR HEMOGLOBIN [2]: 24.3 pg
- MEAN CORPUSCULAR HEMOGLOBIN CONCENTRATION [2]: 38.52 G/DL
- MEAN CORPUSCULAR VOLUME [2]: 63.15 fL
- MONOCYTE [2]: 1.67%
- NEUTROPHIL [2]: 8.17%
- NUCLEATED RED BLOOD CELLS [2]: 0 /100WBC
- PLATELET COUNT [2]: 1186.67 x10E3/uL
- ALANINE AMINOTRANSFERASE [2]: 50.17 u/L
- ALBUMIN [2]: 4.07 G/DL
- ALKALINE PHOSPHATASE [2]: 367.5 u/L
- ASPARTATE AMINOTRANSFERASE [2]: 81.67 u/L
- BLOOD UREA NITROGEN [2]: 16.17 mg/dL
- CARBON DIOXIDE [2]: 32.33 mmol/L
- CHLORIDE [2]: 101.5 MEQ/L
- CHOLESTEROL [2]: 65.33 mg/dL
- CREATINE PHOSPHOKINASE [2]: 255.33 u/L
- CREATININE [2]: 0.17 mg/dL
- GLUCOSE [2]: 139.33 mg/dL
- LACTATE DEHYDROGENASE [2]: 95 u/L
- LIPASE [2]: 10.5 u/L
- PHOSPHORUS [2]: 10.38 mg/dL
- POTASSIUM [2]: 6.11 MEQ/L
- SODIUM [2]: 145.55 MEQ/L
- TOTAL BILIRUBIN [2]: 0.17 mg/dL
- TOTAL PROTEIN [2]: 5.98 G/DL
- URIC ACID [2]: 0.93 mg/dL
- ABSOLUTE BASOPHIL [3]: 0 CELLS/uL
- ABSOLUTE EOSINOPHIL [3]: 102.33 CELLS/uL
- ABSOLUTE LYMPHOCYTE [3]: 13682.67 CELLS/uL
- ABSOLUTE MONOCYTE [3]: 170.33 CELLS/uL
- ABSOLUTE SEGMENTED NEUTROPHIL [3]: 1778 CELLS/uL
- BASOPHIL [3]: 0%
- EOSINOPHIL [3]: 0.67%
- ERYTHROCYTE COUNT [3]: 5.57 x10E6/uL
- HEMATOCRIT [3]: 35.2%
- HEMOGLOBIN [3]: 13.87 G/DL
- LEUKOCYTE COUNT [3]: 15.73 x10E3/uL
- LYMPHOCYTE [3]: 86.67%
- MEAN CORPUSCULAR HEMOGLOBIN [3]: 24.87 pg
- MEAN CORPUSCULAR HEMOGLOBIN CONCENTRATION [3]: 39.37 G/DL
- MEAN CORPUSCULAR VOLUME [3]: 63.2 fL
- MONOCYTE [3]: 1%
- NEUTROPHIL [3]: 11.67%
- NUCLEATED RED BLOOD CELLS [3]: 0 /100WBC
- PLATELET COUNT [3]: 1237 x10E3/uL
- ALANINE AMINOTRANSFERASE [3]: 53 u/L
- ALBUMIN [3]: 3.97 G/DL
- ALKALINE PHOSPHATASE [3]: 363.67 u/L
- ASPARTATE AMINOTRANSFERASE [3]: 98.67 u/L
- BLOOD UREA NITROGEN [3]: 15.33 mg/dL
- CARBON DIOXIDE [3]: 23.33 mmol/L
- CHLORIDE [3]: 103.33 MEQ/L
- CHOLESTEROL [3]: 70.67 mg/dL
- CREATINE PHOSPHOKINASE [3]: 579.33 u/L
- CREATININE [3]: 0.13 mg/dL
- GLUCOSE [3]: 155.67 mg/dL
- LACTATE DEHYDROGENASE [3]: 507.67 u/L
- LIPASE [3]: 9 u/L
- PHOSPHORUS [3]: 12.8 mg/dL
- POTASSIUM [3]: 5.78 MEQ/L
- SODIUM [3]: 143.9 MEQ/L
- TOTAL BILIRUBIN [3]: 0.2 mg/dL
- TOTAL PROTEIN [3]: 5.67 G/DL
- URIC ACID [3]: 1.83 mg/dL
- ABSOLUTE BASOPHIL [4]: 0 CELLS/uL
- ABSOLUTE EOSINOPHIL [4]: 47.67 CELLS/uL
- ABSOLUTE LYMPHOCYTE [4]: 10405 CELLS/uL
- ABSOLUTE MONOCYTE [4]: 114.67 CELLS/uL
- ABSOLUTE SEGMENTED NEUTROPHIL [4]: 899.33 CELLS/uL
- BASOPHIL [4]: 0%
- EOSINOPHIL [4]: 0.33%
- ERYTHROCYTE COUNT [4]: 6.07 x10E6/uL
- HEMATOCRIT [4]: 37.63%
- HEMOGLOBIN [4]: 14.23 G/DL
- LEUKOCYTE COUNT [4]: 11.47 x10E3/uL
- LYMPHOCYTE [4]: 90%
- MEAN CORPUSCULAR HEMOGLOBIN [4]: 23.5 pg
- MEAN CORPUSCULAR HEMOGLOBIN CONCENTRATION [4]: 37.87 G/DL
- MEAN CORPUSCULAR VOLUME [4]: 62.07 fL
- MONOCYTE [4]: 1%
- NEUTROPHIL [4]: 8.67%
- NUCLEATED RED BLOOD CELLS [4]: 0 /100WBC
- PLATELET COUNT [4]: 1244.67 x10E3/uL
- ALANINE AMINOTRANSFERASE [4]: 54.33 u/L
- ALBUMIN [4]: 4.27 G/DL
- ALKALINE PHOSPHATASE [4]: 299.67 u/L
- ASPARTATE AMINOTRANSFERASE [4]: 84.33 u/L
- BLOOD UREA NITROGEN [4]: 16 mg/dL
- CARBON DIOXIDE [4]: 30.67 mmol/L
- CHLORIDE [4]: 102 MEQ/L
- CHOLESTEROL [4]: 59.67 mg/dL
- CREATINE PHOSPHOKINASE [4]: 401 u/L
- CREATININE [4]: 0.22 mg/dL
- GLUCOSE [4]: 139.33 mg/dL
- LACTATE DEHYDROGENASE [4]: 140 u/L
- LIPASE [4]: 10 u/L
- PHOSPHORUS [4]: 10.83 mg/dL
